Read-outs that look alike come from different tables or passages of the source. Non-standard residues stand in square brackets, D forms with d. No end group written: not given here.
Experiments:
GPIb-vWf interaction = molecular target: T1, GPIb-vWf interaction (Homo sapiens, UniProt P07359); experiment: Flow cytometry inhibition of vWf binding to ristocetin-activated platelets in PRP; type: cell-based
T1 construct: Platelet rich plasma (PRP) was prepared from whole blood by centrifugation; endogenous in cells
Procedure: (§1) In order to prepare human platelets for testing, as approved by Canadian Blood Services' Ethics Board, samples of whole blood were drawn from healthy, consenting donors into 2.7-4.0 mL citrated tubes (BD, USA). Platelet rich plasma (PRP) was prepared from whole blood by centrifugation in a Beckman (CS-6R) bench-top centrifuge (r=203.57 mm, Beckman Coulter, USA) 164×g for 15 minutes. PRP from a number of unrelated donors were evaluated on an Adiva 120 Hematology Analyzer (Bayer, Canada) and standardized to a concentration of 300×10^9 platelets/L in HEPES buffered saline (HBS, 10 mM HEPES, 150 mM NaCl, pH 7.4).
Thereafter the samples were diluted and fixed with 1.0 mL 0.2% formolsaline (0.2% formaldehyde, 150 mM NaCl, pH 7.20) before analysis on a FACS Canto flow cytometer (BD, USA).
The effect of native HPG, free peptides, and peptide-conjugated HPG on activated platelets using modifications of the above assay systems was also examined. Platelets were treated with either 5 μL 4.2 mg/mL ristocetin (Chrono-Log, USA) or 100 U thrombin (T6884, Sigma-Aldrich, Canada) with 5 μL GPRP fibrin inhibitor (G5779, Sigma-Aldrich, Canada) dissolved in HBS. […] Controls included incubation with mouse IgG-FITC/IgG-PE (Beckman-Coulter, Canada) of the same isotype, and/or omitting the conjugate.

[1] = test system: CD62/P-selectin on platelet surfaces; experiment: Flow cytometry of surface CD62 expression on platelets; type: cell-based, human; details: for Surface CD62 Expression, Activated Platelets: thrombin-activated platelets
Procedure: as §1
(§2) 40 μL aliquots of HBS were mixed with 5 μL PRP and 5 μL of the material to be tested: 500 kDa native HPG; free peptides; or peptide-conjugated HPG at 1.0×10^−3 M to 1.0×10^−9 M. After 40 minutes of incubation at ambient temperature, 5 μL 0.01 mg/mL FITC-conjugated polyclonal sheep anti-human vWf IgG (Abcam, USA) or 5 μL of 2 mg/mL PE-conjugated monoclonal mouse anti-human CD62 IgG (Beckman-Coulter, Canada) was added and incubation was continued in the dark for 30 min. Thereafter the samples were diluted and fixed with 1.0 mL 0.2% formolsaline (0.2% formaldehyde, 150 mM NaCl, pH 7.20) before analysis on a FACS Canto flow cytometer (BD, USA).
The effect of native HPG, free peptides, and peptide-conjugated HPG on activated platelets using modifications of the above assay systems was also examined. Platelets were treated with either 5 μL 4.2 mg/mL ristocetin (Chrono-Log, USA) or 100 U thrombin (T6884, Sigma-Aldrich, Canada) with 5 μL GPRP fibrin inhibitor (G5779, Sigma-Aldrich, Canada) dissolved in HBS. This was done to determine whether the peptides and the peptide-conjugates can mitigate vWf and thrombin mediated platelet effects. Controls included incubation with mouse IgG-FITC/IgG-PE (Beckman-Coulter, Canada) of the same isotype, and/or omitting the conjugate. As a result, native HPG, free peptides, and peptide-conjugated HPG neither did they increase vWf binding to resting platelets (Table 5) or they could trigger platelet activation. […]

[2] = test system: vWf binding to resting platelets; experiment: Flow cytometry of vWf binding to resting platelets; type: cell-based, human
Procedure: as §1, §2
(§3) The effect of native HPG, free peptides, and peptide-conjugated HPG on activated platelets using modifications of the above assay systems was also examined. Platelets were treated with either 5 μL 4.2 mg/mL ristocetin (Chrono-Log, USA) or 100 U thrombin (T6884, Sigma-Aldrich, Canada) with 5 μL GPRP fibrin inhibitor (G5779, Sigma-Aldrich, Canada) dissolved in HBS. This was done to determine whether the peptides and the peptide-conjugates can mitigate vWf and thrombin mediated platelet effects. Controls included incubation with mouse IgG-FITC/IgG-PE (Beckman-Coulter, Canada) of the same isotype, and/or omitting the conjugate. As a result, native HPG, free peptides, and peptide-conjugated HPG neither did they increase vWf binding to resting platelets (Table 5) or they could trigger platelet activation.

platelets = experiment: Aggregometry, % aggregation on activation; type: cell-based, human; design: concentration or dose not given beside the values; details: ristocetin activation
Procedure: as §1, §3
The inhibition of platelet agglutination by vWf was observed both by light microscopy and lumiaggregometry (Table 5). No clumping was seen when resting platelets were incubated with free peptides, native HPG, or peptide-conjugated HPG.

purified vWf = purified vWf (Homo sapiens, UniProt P04275); experiment: Random D-peptide array on cellulose membrane probed with purified vWf; type: binding; details: detected by HRP anti-human-vWf IgG
Description: Random D-amino acid peptides (15 mer) were synthesized and probed with vWf to detect random sequences capable of binding vWf.
Random peptide arrays of 1120 peptides made of D-amino acids were synthesized on a cellulose membrane using an AutoSpot ASP 222 peptide synthesizer (ABiMED, Langenfeld, Germany). Resulting replicate libraries of 15-mer sequences were probed for vWf binding function by exposing the membranes to purified vWf after blocking with skim milk to prevent non-specific binding of horseradish peroxidase labelled goat anti-human-vWf IgG. The chemiluminescent substrate from the Amersham Pharmacia ECL kit detected positive spots that were recorded on photographic film. Negative controls consisted of probing the membranes with the antibodies without prior exposure of the membrane to purified vWf.
(§4) Peptides on random 15-mer peptide arrays that were built of D-amino acids were selected on the basis of their ability to bind to vWf. Only four positive sequences were identified: D-pep1—[…] (SEQ ID NO:4); D-pep2—[…] (SEQ ID NO:5); D-pep3—[…] (SEQ ID NO:6); and D-pep4—[…] (SEQ ID NO:7). D-pep2 (SEQ ID NO:5), D-pep3 (SEQ ID NO:6) and D-pep4 (SEQ ID NO:7) were synthesized for laboratory experimentation. D-pep3 (SEQ ID NO:6), 10 mg, was synthesized by UBC's Peptide Proteomic Centre and was solubilized in Hepes-saline buffer, pH 7.4 and used at 0.1-0.5 mg/mL. Fresh washed platelets ([…]) in Hepes buffer were added and agglutination was initiated by 1.25 mg/mL ristocetin (Sigma). Agglutination times and levels were monitored both microscopically and on an aggregometer (ChronoLog) as described by the manufacturer.

[3] = test system: GPIb-vWf-mediated platelet agglutination; experiment: Inhibition of ristocetin-mediated agglutination of washed platelets (microscopy, aggregometer); type: cell-based, human; details: for % agglutination (aggregometry): at 10 minutes, washed platelets, ristocetin
Procedure: as §4

[4] = inhibition of platelet-vWf binding, molar concentration of peptide or conjugate, read-out: Ic50
[5] = expressed as peptide concentration
[6] = inhibition of platelet-vWf binding, molar concentration of peptide or conjugate

## L10: HPG 500 kDa conjugate with about 10 L-peptides per HPG molecule (CGGGGGGSHAYIGLKDR; also: conjugated to HPG 500 kDa, about 10 L-peptides per HPG molecule, site not given here)
GPIb-vWf interaction
  inhibition of vWf binding to platelets (in words): effective inhibitors
GPIb-vWf interaction; expressed as peptide concentration, read-out: Peptide Concentration at Ic50
  IC50: 67 µM
GPIb-vWf interaction; [4]
  IC50: 6.7 µM
[1]
  Surface CD62 Expression, Resting Platelets: 17 ± 1
  Surface CD62 Expression, Activated Platelets: 73 ± 5″
[2]
  vWf Binding, Resting Platelets: 22 ± 5′

## D-CGGGGGGRDKLGIYAHS [DR-pep]
GPIb-vWf interaction; [5]
  Peptide Concentration at Ic50 (M): No activity
GPIb-vWf interaction; [6]
  Ic50 (M): No activity
platelets
  Aggregometry % Aggregation on Activation: 78 ± 5%
[1]
  Surface CD62 Expression, Resting Platelets: 27 ± 18
  Surface CD62 Expression, Activated Platelets: 72 ± 3″
[2]
  vWf Binding, Resting Platelets: 28 ± 3′

## WQNEGTHVLSRCYEC ([dW][dQ][dN][dE]G[dT][dH][dV][dL][dS][dR][dC][dY][dE][dC]; cysteine pairing not given here) [D-pep2]
Purified vWf
  vWf binding on random 15-mer D-peptide array: positive

## D10: HPG 500 kDa conjugate with about 10 D-peptides per HPG molecule ([dC]GGGGGG[dR][dD][dK][dL]G[dI][dY][dA][dH][dS]; also: coupled through vinyl sulfone to 500 kDa hyperbranched polyglycerol (HPG), about 10 peptides per HPG)
GPIb-vWf interaction; [5]
  Peptide Concentration at Ic50 (M): No activity
GPIb-vWf interaction; [6]
  Ic50 (M): No activity
platelets
  Aggregometry % Aggregation on Activation: 82 ± 5%
[1]
  Surface CD62 Expression, Resting Platelets: 14 ± 7
  Surface CD62 Expression, Activated Platelets: 70 ± 6″
[2]
  vWf Binding, Resting Platelets: 24 ± 2′

## LR10: HPG conjugate with 10 L-retro peptides per HPG molecule (CGGGGGGRDKLGIYAHS; also: conjugated to HPG, 10 L-retro peptides per HPG molecule, site not given here)
GPIb-vWf interaction; [4]
  IC50: 4.1 µM
[1]
  Surface CD62 Expression, Resting Platelets: 17 ± 2
  Surface CD62 Expression, Activated Platelets: 72 ± 4″
[2]
  vWf Binding, Resting Platelets: 24 ± 2′

## LR100: HPG 500 kDa conjugate with about 100 L-retro peptides per HPG molecule (CGGGGGGRDKLGIYAHS; also: conjugated to HPG 500 kDa, about 100 L-retro peptides per HPG molecule, site not given here)
GPIb-vWf interaction
  inhibition of vWf binding to platelets (in words): effective inhibitors
GPIb-vWf interaction; [4]
  IC50: 0.49 µM
[1]
  Surface CD62 Expression, Resting Platelets: 18 ± 1
  Surface CD62 Expression, Activated Platelets: 73 ± 2″
[2]
  vWf Binding, Resting Platelets: 22 ± 2′

## D-CGGGGGGRDKLGIYAHS [D-pep]
GPIb-vWf interaction; [5]
  Peptide Concentration at Ic50 (M): No activity
GPIb-vWf interaction; [6]
  Ic50 (M): No activity
platelets
  Aggregometry % Aggregation on Activation: 80 ± 5%
[1]
  Surface CD62 Expression, Resting Platelets: 18 ± 2
  Surface CD62 Expression, Activated Platelets: 68 ± 10″
[2]
  vWf Binding, Resting Platelets: 14 ± 8′

## D100: HPG 500 kDa conjugate with about 100 D-peptides per HPG molecule ([dC]GGGGGG[dR][dD][dK][dL]G[dI][dY][dA][dH][dS]; also: coupled through vinyl sulfone to 500 kDa hyperbranched polyglycerol (HPG), about 100 peptides per HPG)
GPIb-vWf interaction; [5]
  Peptide Concentration at Ic50 (M): No activity
GPIb-vWf interaction; [6]
  Ic50 (M): No activity
platelets
  Aggregometry % Aggregation on Activation: 73 ± 5%
[1]
  Surface CD62 Expression, Resting Platelets: 18 ± 1
  Surface CD62 Expression, Activated Platelets: 72 ± 1″
[2]
  vWf Binding, Resting Platelets: 26 ± 3′

## VSRQNGKQYWAIKEG ([dV][dS][dR][dQ][dN]G[dK][dQ][dY][dW][dA][dI][dK][dE]G) [D-pep1]
Purified vWf
  vWf binding on random 15-mer D-peptide array: positive

## bovine serum albumin [reference compound]
[3]; 0.5 mg/mL
  % agglutination (aggregometry): 55%

## RSARMQVCWNAFKNR ([dR][dS][dA][dR][dM][dQ][dV][dC][dW][dN][dA][dF][dK][dN][dR]) [D-pep3]
Purified vWf
  vWf binding on random 15-mer D-peptide array: positive
[3]; 0.1 mg/mL
  % agglutination (aggregometry): 69%
[3]; 0.25 mg/mL
  % agglutination (aggregometry): 28%
[3]; 0.5 mg/mL
  % agglutination (aggregometry): 13%
[3]; 100-fold excess of peptide based on plasma vWf content, controls agglutinated within 5 minutes
  ristocetin-mediated platelet agglutination by microscopy: prevented visible agglutination at 20 minutes

## DSCPRDWDNNFLFFE ([dD][dS][dC][dP][dR][dD][dW][dD][dN][dN][dF][dL][dF][dF][dE]) [D-pep4]
Purified vWf
  vWf binding on random 15-mer D-peptide array: positive

## CGGGGGGRDKLGIYAHS [LR-pep]
GPIb-vWf interaction
  IC50: 34 µM
platelets
  Aggregometry % Aggregation on Activation: 5 ± 5%
[1]
  Surface CD62 Expression, Resting Platelets: 19 ± 2
  Surface CD62 Expression, Activated Platelets: 70 ± 5″
[2]
  vWf Binding, Resting Platelets: 25 ± 12′

Reference: patent publication US7919465B2, “Peptide mimotopes that inhibits interaction between a platelet receptor and a platelet receptor ligand” (priority 2006, dated 2011)
